Results from patent publication US11780834B2, “Solid forms of 3-((1R,3R)-1-(2,6-difluoro-4-((1-(3-fluoropropyl)azetidin-3-yl)amino)phenyl)-3-methyl-1,3,4,9-tetrahydro-2H-pyrido[3,4-b]indol-2-yl)-2,2-difluoropropan-1-ol and processes for preparing fused tricyclic compounds comprising a substituted phenyl or pyridinyl moiety, including methods …” (Hoffmann-La Roche Inc., priority 2018, dated 2023).
Values after ≈ are worked out from the molar mass of the structure shown.

Key:
[1] = Approximate solubility of freebase Compound A in 16 solvents at RT; assay type: physicochemical
Protocol: Polymorph Screening. The solubility of freebase Compound A was estimated in 16 solvents at RT. (Table 8). Polymorph screening experiments were performed using different solution crystallization or solid phase transition methods.

[2] = Solubility at 37° C. (summary of solid forms); assay type: physicochemical; conditions: medium not stated
[3] = Stress stability of solid forms at elevated temperature and humidity (XRPD, impurities); assay type: physicochemical
Protocol: Preliminary stress stability analysis of Compound B Form B. The XRPD patterns of Compound A salts (fumarate and tartrate) exposed to 40° C./75% RH for one month under open conditions.
XRPD of one-month stability sample.

[4] = Hydrate-anhydrate stability, slurry competition under various water activity at RT; assay type: physicochemical
Protocol: Critical Water Activity Determination between Form B and D. To determine critical water activity between anhydrous Form B and hydrous Form D, slurry competition was performed in various water activity conditions at RT as listed in Table 34. A mixture of Form B and D with equal mass ratio was suspended in saturated EtOH-water (with various aw) solutions of Form B and then magnetically stirred at RT. After slurry for about 7˜36 days, remaining solids were isolated for XRPD characterization.

[5] = Equilibrium solubility (24 hrs) of Form B and Form D in aw 0.2/0.4 EtOH:H2O systems; assay type: physicochemical; conditions: RT, concentration of freebase in filtrate; for solubility at 24 hrs: organic solvent or mixture, thermodynamic from solid
Protocol: Solubility Measurement of Form B and D. To further confirm the thermodynamic stability relationship between Form B and Form D under aw of 0.2 and 0.4 conditions at RT, equilibrium solubility under the conditions set forth in Table 35 was collected.
Solids of anhydrous Form B and hydrous Form D were suspended in 0.5 mL of target solvent system (aw=0.2/0.4), respectively, and magnetically stirred for 24 hrs (750 rpm). The suspension was filtered and the concentration of freebase in the filtrate was tested.

[6] = Equilibrium solubility (17 hrs) of Form B and Form F in EtOH; assay type: physicochemical; conditions: concentration of freebase in filtrate
From the text: Phase transformation. Crystallization of Compound B from solvents such as ethyl acetate, ethanol, acetone or and aqueous mixture of these may result in the formation of one more of the following forms: anhydrous Form B, anhydrous Form F, monohydrate Form D, and acetone solvate Form A. The XRPD patterns of these four solid forms are shown in FIG. 21. It was therefore important to know the physical stability of these forms to determine the complete phase transformation landscape and control crystallization to obtain the desired Form B. Owing to the close proximity of melting points of Forms F and B (160-164° C. onset for Form F vs 166-175° C. for Form B), form conversion was slow in competitive slurry bridging experiments at RT and a mixture of both forms was obtained.
Equilibrium Solubility Measurement of Anhydrous Form B and F. To further determine the thermodynamic stability between Form B and F, equilibrium solubility measurement experiments were conducted in EtOH at 25° C., 35° C. and 50° C., respectively. Detailed procedures are summarized as follows: solids of Form B and F were suspended in 0.4 mL of EtOH at targeted temperatures and magnetically stirred for 17 hrs (750 rpm). After centrifugation, the concentration and HPLC purity of freebase in the filtrate was tested. The crystal form of remaining solids was checked by XRPD.

[7] = Water sorption analysis / DVS (hygroscopicity); assay type: physicochemical; conditions: for Hygroscopicity (in words): water sorption / DVS at 25° C.
Protocol: Water sorption analysis. About 5-6 mg of powder sample was placed in the sample pan of an automated water sorption analyzer (Q5000SA, TA instruments, New Castle, DE) at 25° C. and a nitrogen flow rate of 200 mL/min. […] This was followed by a progressive decrease in RH in decrements of 10% back to 0% RH, using the same protocol.

[8] = Compression analysis of Compound B Form B compacts; assay type: physicochemical; conditions: 250 mg compacts of neat compound
[9] = tested on: xenograft models of ER-positive breast cancer; conditions: dosed according to a clinically relevant dosing scheme

Compound: C[C@@H]1Cc2c([nH]c3ccccc23)[C@@H](c2c(F)cc(NC3CN(CCCF)C3)cc2F)N1CC(F)(F)CO [Compound A, 3-((1R,3R)-1-(2,6-difluoro-4-((1-(3-fluoropropyl)azetidin-3-yl)amino)phenyl)-3-methyl-1,3,4,9-tetrahydro-2H-pyrido[3,4-b]indol-2-yl)-2,2-difluoropropan-1-ol]
- solubility ([1]; ethanol, organic solvent or mixture, EtOH): > 60 mg/mL
- solubility ([1]; organic solvent or mixture, 1,4-Dioxane): > 60 mg/mL
- solubility ([1]; organic solvent or mixture, 2-propanol): > 60 mg/mL
- solubility ([1]; organic solvent or mixture, ACN): > 60 mg/mL
- solubility ([1]; organic solvent or mixture, Acetone): > 60 mg/mL
- solubility ([1]; organic solvent or mixture, CPME): > 44 mg/mL
- solubility ([1]; organic solvent or mixture, Cyclohexanes): < 1.9 mg/mL
- solubility ([1]; organic solvent or mixture, EtOAc): > 60 mg/mL
- solubility ([1]; organic solvent or mixture, IPAc): > 60 mg/mL
- solubility ([1]; organic solvent or mixture, Iso-butanol): > 40 mg/mL
- solubility ([1]; organic solvent or mixture, MIBK): > 60 mg/mL
- solubility ([1]; organic solvent or mixture, MTBE): > 60 mg/mL
- solubility ([1]; organic solvent or mixture, MeTHF): > 60 mg/mL
- solubility ([1]; organic solvent or mixture, Toluene): > 60 mg/mL
- solubility ([1]; organic solvent or mixture, n-Heptane): < 2.1 mg/mL
- solubility ([1]; water, H2O): < 1.9 mg/mL
- solubility [2]: ~6.6 mg/mL (≈ 12.6 mM)

Compound: C[C@@H]1Cc2c([nH]c3ccccc23)[C@@H](c2c(F)cc(NC3CN(CCCF)C3)cc2F)N1CC(F)(F)CO [Compound B Form B]
- Solubility at 37° C. [2]: about 5.9 mg/mL
- Solid form (XRPD) after accelerated stability ([3]; 30° C./65% RH and 40° C./75% RH, up to 6 months, open): remains unchanged
- Solid form (XRPD) after stress stability ([3]; 40° C./75% RH, one month, open): remains unchanged
- Water activity (aw) at which the form remained stable against hydrate Form D [4]: < 0.2
- Water activity (aw) up to which the form was kinetically stable ([4]; slurry bridging experiments up to 36 days): ≤ 0.4
- solubility at 24 hrs ([5]; EtOH:H2O (92.7:7.3, v/v), aw 0.4, 25 °C, aw 0.4, EtOH:H2O (92.7:7.3, v/v)): 27.5 mg/mL (≈ 52.6 mM)
- solubility at 24 hrs ([5]; EtOH:H2O (97:3, v/v), aw 0.2, 25 °C, aw 0.2, EtOH:H2O (97:3, v/v)): 24.4 mg/mL (≈ 46.7 mM)
- solubility at 17 hrs ([6]; 35 °C, organic solvent or mixture, thermodynamic from solid): 0.3 mg/mL (≈ 0.574 mM)
- solubility at 17 hrs ([6]; 50 °C, organic solvent or mixture, thermodynamic from solid): 0.49 mg/mL (≈ 0.938 mM)
- solubility at 17 h ([6]; ethanol, 25 °C, organic solvent or mixture, thermodynamic from solid): 0.23 mg/mL (≈ 0.44 mM)
- Hygroscopicity (in words) [7]: slightly hygroscopic
- Solid form upon compression (SSNMR, XRPD) [8]: remains unchanged

Compound: C[C@@H]1Cc2c([nH]c3ccccc23)[C@@H](c2c(F)cc(NC3CN(CCCF)C3)cc2F)N1CC(F)(F)CO [Compound B Form D]
- Solubility (equilibrium) ([5]; aw 0.2, EtOH:H2O (97:3, v/v)): 21.7 mg/mL (≈ 41.5 mM)
- Solubility (equilibrium) ([5]; aw 0.4, EtOH:H2O (92.7:7.3, v/v)): 18.6 mg/mL (≈ 35.6 mM)
- Water uptake (DVS, desorption) ([7]; 20% RH, 25° C.): 2.25%
- Water uptake (DVS, desorption) ([7]; 80% RH, 25° C.): 2.72%

Compound: C[C@@H]1Cc2c([nH]c3ccccc23)[C@@H](c2c(F)cc(NC3CN(CCCF)C3)cc2F)N1CC(F)(F)CO [Compound B Form F]
- Solubility (equilibrium) ([6]; 25° C.): 0.26 mg/mL (≈ 0.498 mM)
- Solubility (equilibrium) ([6]; 35° C.): 0.36 mg/mL (≈ 0.689 mM)
- Solubility (equilibrium) ([6]; 50° C.): 0.82 mg/mL (≈ 1.57 mM)
- Water uptake (DVS) ([7]; up to 80% RH, 25° C.): ~1.9%
- Hygroscopicity (in words) [7]: slightly hygroscopic

Compound: C[C@@H]1Cc2c([nH]c3ccccc23)[C@@H](c2c(F)cc(NC3CN(CCCF)C3)cc2F)N1CC(F)(F)CO [Compound C Form 1]
- Hygroscopicity at 95% RH ([7]; 95% RH): < 1.5%

Compound: C[C@@H]1Cc2c([nH]c3ccccc23)[C@@H](c2c(F)cc(NC3CN(CCCF)C3)cc2F)N1CC(F)(F)CO [Compound C]
- Impurities after stress stability ([3]; 40° C./75% RH, one month): 0.18%
- Solid form (XRPD) after stress stability ([3]; 40° C./75% RH, one month, open): did not change

Compound: C[C@]12CC[C@@H]3c4ccc(O)cc4C[C@@H](CCCCCCCCC[S+]([O-])CCCC(F)(F)C(F)(F)F)[C@H]3[C@@H]1CC[C@@H]2O (stereo partly drawn) [Fulvestrant, reference compound]
- Efficacy relative to Compound B [9]: less efficacious than Compound B
